Data reported in article PMC12040169 (PLOS Biology, 2025).

Assay: in vitro
Conditions: human, hela cells, % viability

Row | Compound | viability at 28.5 h, 10 µM [%]
1 | CNC(=O)c1cccc(NC(=O)c2cc(Br)cnc2NCC2CC2)c1 [CBK076380] | 95.5
2 | COC(=O)c1c(NC(=O)C2C3C=CC(C3)C2C(=O)O)sc2c1CCCCC2 (stereo not shown) [CBK262653] | 80.2
3 | Cc1cccc(OCCCn2cncc2-c2cn(C)nc2C)c1 [CBK281766] | 90
4 | CS(=O)(=O)N1CC2(CCN(CCO)CC2)c2ccccc21 [CBK126677] | 94.5
5 | NC(=O)c1cccnc1-c1nc2ccccc2s1 [CBK287930] | 80
6 | O=[N+]([O-])c1ccc(Oc2cccc3cccnc23)c(F)c1 [CBK002750] | 60.4
7 | O=C(NCCn1nc(-c2cccs2)ccc1=O)C1CCCCC1 [CBK283837] | 90.7
8 | O=P(O)(CCc1ccccc1)CN1CCCCC1 [CBK262318] | 78.6
9 | NCC(=O)Nc1ccc(Cl)c(Cl)c1 [CBK046317] | 94.3
10 | Cc1nc(NC(=O)Cn2nc(N3CCSCC3)ccc2=O)sc1C [CBK307622] | 98.3
11 | Cc1cc(C)nc(Nc2n[nH]c(-c3ccccc3Cl)n2)n1 [CBK288167] | 98.2
12 | O=C(O)c1cc(NCc2ccccc2)ccc1N1CCOCC1 [CBK287099] | 101
13 | Cc1ccc(NC(=O)Cn2cnc3sc(C(=O)Nc4ccccc4)c(C)c3c2=O)cc1 [CBK265931] | 101
14 | Cc1nc(N)sc1-c1nnc(SC/C=C/c2ccccc2)n1C [CBK269383] | 81.7
15 | CC(=O)NCC1CC(=O)N(c2ccc(Br)cc2)C1 (stereo not shown) [CBK008134] | 109
16 | O=C(Cn1c(C2CCCNC2)cc2cccnc21)NC1CCCC1 (stereo not shown) [CBK285059] | 97.5
17 | Cc1nc(-c2ccccc2)sc1CNC(=O)CCc1c[nH]c2ccccc12 [CBK092373] | 106
18 | COc1cc(/C=C(/C#N)C(N)=O)cc(Br)c1O [CBK017409] | 88.1
19 | O=C(O)c1ccc(/C=N/Nc2cccc3cccnc23)cc1 [CBK262372] | 74.4
20 | COc1ccc(C(C)C)cc1-c1cncc(NCCc2ccccn2)n1 [CBK065325] | 94.9
21 | O=C(Nc1ccc(O)cc1)c1ccc2c(c1)C(=O)N(c1cccc(N3C(=O)c4ccc(C(=O)Nc5ccc(O)cc5)cc4C3=O)n1)C2=O [CBK261334] | 102
22 | O=C(c1cc(F)c(F)cc1F)N1CCC2(CCN(Cc3cc(=O)[nH]c(=O)[nH]3)C2)C1 (stereo not shown) [CBK132141] | 91.4

Row | Compound | viability at 28.5 h, 10 µM [%]
23 | Cc1ccc(OCC(=O)NNC(=O)c2ccco2)cc1 [CBK261800] | 96.1
24 | Cc1nn(Cc2cccnc2)c(=O)n2cccc12 [CBK283848] | 105
25 | O=C(NC(c1ccccc1)c1ccccc1)N1CCN(Cc2ccccc2)CC1 [CBK155630] | 86.3
26 | O=C(Nc1ccccc1C(=O)O)c1ccc(-c2ccc(Cl)cc2Cl)o1 [CBK078453] | 105
27 | O[C@@H]1C[C@@H](c2nc(-c3ccc(F)cc3)no2)N(Cc2ncc[nH]2)C1 [CBK288849] | 121
28 | CN1CCC(N(C)C(=O)NCCOc2ccccc2)C1 (stereo not shown) [CBK156018] | 107
29 | COc1ccc(Cl)cc1NC(=O)CN(c1cc([N+](=O)[O-])ccc1C)S(C)(=O)=O [CBK266394] | 114
30 | COc1cc(C#N)ccc1Oc1ccc([N+](=O)[O-])cn1 [CBK002569] | 108
31 | COc1cc(C)c(C)cc1S(=O)(=O)n1cnc2ccccc21 [CBK287578] | 89.2
32 | c1ccc(CCn2c3ccccc3c3nnc(SCc4ccc5nonc5c4)nc32)cc1 [CBK267516] | 97.4
33 | Cn1c(-c2ccc(CN3CCCC3)cc2)nc2onc(-c3ccccc3)c2c1=O [CBK039188C] | 95.2
34 | Cn1nnc2cc(C(=O)NCCN3CCCCC3CO)ccc21 (stereo not shown) [CBK307268] | 84.3
35 | COc1ccc2[nH]c([C@H]3CCN(S(C)(=O)=O)C3)nc2c1 [CBK289377] | 111
36 | Nc1ncc(-c2cccc(/C=C/C(=O)O)c2)nc1NCc1ccco1 [CBK063691] | 98.7
37 | CS(=O)(=O)N(Cc1ccccc1)c1ccc(C(=O)Nc2ccccc2C(=O)O)cc1 [CBK264117] | 108
38 | CC(NC(=O)Cc1c[nH]c(=O)[nH]c1=O)c1cc2cc(Cl)ccc2o1 (stereo not shown) [CBK285673] | 100
39 | O=C(CCN1C(=O)/C(=C/c2ccc(F)cc2)SC1=S)NNC(=O)c1cccnc1 [CBK262862] | 104
40 | CCOC(=O)c1c(-c2ccc(C)o2)csc1NC(=O)CN1CCCCC1C (stereo not shown) [CBK265917] | 105
41 | COc1ccc(CNC(=O)c2ccccc2NS(=O)(=O)c2cc(Cl)ccc2Cl)cc1 [CBK113964] | 101
42 | COc1cc(/C=C2/SC(=N)NC2=O)ccc1OCc1ccccc1[N+](=O)[O-] [CBK262181] | 85.4
43 | CN(CCC#N)S(=O)(=O)c1ccc(Cl)c(Cl)c1 [CBK045396] | 91.8
44 | C=CCn1c2cc(C)sc2c2cnn(CC(=O)NC3CC3)c(=O)c21 [CBK284149] | 86.1

Row | Compound | viability at 28.5 h, 10 µM [%]
45 | O=C(N[C@@H](Cn1cc(Cl)c(=O)[nH]c1=O)C(=O)O)C1CCCCC1 [CBK289648] | 98.7
46 | O=C(NCc1ccc(F)cc1)Nc1ccccc1F [CBK115584] | 98.9
47 | COc1ccc(-c2cccc(Nc3cc(OC)c(OC)c(OC)c3)n2)cc1OC [CBK037634] | 55.7
48 | COC(=O)[C@H]1CCc2ccccc2N1C(=O)C(C)C [CBK285474] | 100
49 | CN1CCN(C(=O)CCc2nc(-c3ccc(Cl)cc3)no2)CC1 [CBK268304] | 117
50 | CCOC(=O)c1cnc(O/N=C(\N)c2ccc(C(C)(C)C)cc2)nc1C(F)(F)F [CBK022142] | 103
51 | CNC(=O)c1cnc2sc3c(n2c1=O)CCCC3 [CBK288126] | 102
52 | O=C(O)C1C2C=CC(O2)C1C(=O)NCC1CCCO1 (stereo not shown) [CBK286917] | 92.7
53 | CC(=O)NCc1cccc(-c2cc(CO)cnc2-c2ccc(Cl)cc2)c1 [CBK161445] | 94.6
54 | COc1cc(F)cc(OC2CCNCC2)c1NC(=O)/C=C/c1cccnc1 [CBK050344T] | 103
55 | O=C(Nc1nnc(C2=COCCO2)o1)c1cccc(Cl)c1 [CBK287417] | 83.5
56 | CC(C)n1c(=O)n(CCN2CCCC2)c2cccnc21 [CBK283532] | 98.6
57 | Cc1nc(C)n(CC2CCCN(Cc3ccccc3C#N)C2)n1 (stereo not shown) [CBK305085] | 98.4
58 | O=C(O)c1ccccc1C1Nc2ccccc2S(=O)(=O)N1Cc1ccccc1 (stereo not shown) [CBK286587] | 107
59 | CC(C)(C)OC(=O)N1CCN(c2ccnc(Cl)n2)CC1 [CBK002095] | 120
60 | COc1cccc(C(NC(=O)c2cccc(Cn3ccnc3C)c2)c2ccccc2)c1 (stereo not shown) [CBK285620] | 111
61 | FC(F)(F)Oc1cccc(-c2cncc(NCc3ccncc3)n2)c1 [CBK065926] | 104
62 | Cc1cc([N+](=O)[O-])ccc1/N=C\c1ccc(C(=O)O)cc1 [CBK262058] | 95.4
63 | Cn1nc(-c2ccc(F)cc2)cc1[C@H]1CN2CC[C@H]1C[C@@H]2CNC(=O)N1CCOCC1 [CBK289108] | 116
64 | O=C1COc2ccccc2CCCCC2(CCCN(C(=O)CN3CCCC3=O)C2)CN1 (stereo not shown) [CBK291992] | 105
